Columns and labels:
ADGRG2 [1] = test: cAMP accumulation assay (GloSensor) with wild-type ADGRG2 and mutants; type: cell-based; conditions: HEK293, GloSensor; agonist IP15 alone, then with antagonist; mean ± SEM, n = 3
Experimental: To assess the cAMP accumulation induced by receptor activation, HEK293 cells were transfected with plasmids for wild-type ADGRG2 or its mutants (ADGRG2-T624A, ADGRG2-C628A, ADGRG2-N668A, ADGRG2-Y758A, ADGRG2-K760A, ADGRG2-D768A, ADGRG2-N773A, ADGRG2-N775A, ADGRG2-N849A, ADGRG2-N860A) alongside the GloSensor plasmid or an empty vector (pcDNA3.1). Following a 24-h incubation at 37 °C with 5% CO2, the transfected cells were plated at a density of 4 × 10^4 per well in 96-well plates and incubated for an additional 24 h. The cells were then pre-treated with serum-free medium containing 5% (v/v) GloSensor cAMP reagent stock solution for 2 h. cAMP signals induced by IP15 were measured immediately after adding the agonists. Luminescence was recorded for at least 20 min per well, and the data were analyzed using sigmoidal dose–response functions in GraphPad Prism v.9.0.

ADGRG2 [2] = conditions: Stachel-derived peptides, earlier work; ref [8],[11]; cited from earlier work
From the text: Stachel (sequence: TSFGILLDLSRTSLP, with individual residues numbered from ss01 to ss15, where “ss” denotes Stachel sequence) is a key functional element of ADGRG2, playing a critical role in regulating the conformation and function of the receptor [8]. The Stachel sequence plays a pivotal role in receptor activation by mediating ligand binding and initiating the conformational changes required for signal transduction, highlighting its biological significance. In previous studies, the wild-type ADGRG2 Stachel sequence-derived peptidic agonist, VPM, was found t ... || Figure 1 Structural and binding analysis of ADGRG2 with agonists and antagonists. (A) Structure of ADGRG2, highlighting key domains involved in ligand binding. Identified agonists (DHEA, DHEAS, IP15) and antagonists (DOC, F601D, F601E) are labeled. […] (B) Schematic representation of metadynamics simulations and ligand binding assay conducted to investigate the binding mechanisms of antagonists F601D, F601E, and DOC to ADGRG2. (C) Structural representation of ADGRG2 in complex wi ...

Substance: IS 4PH GILLDLSRTSLP [IP15]
- IP15-induced cAMP accumulation, effect of ADGRG2 mutations (ADGRG2 [1]): the effects of these mutations are specific to the antagonists and not due to disruption of interactions between receptor residues that contribute to agonist-induced activation
- agonistic activity / receptor state stabilised (ADGRG2 [2]): superior agonistic activity

Source: PMC11719512, “Exploring the Binding Mechanism of ADGRG2 Through Metadynamics and Biochemical Analysis” (International Journal of Molecular Sciences, 2024)
